Results taken from patent publication US6506765B2 (TAP Pharmaceutical Products, Inc., priority 2000, dated 2003).
Read-outs that look alike come from different tables or passages of the source.

How the values were obtained:
adrenergic β1 = adrenergic β1 (Homo sapiens, UniProt P08588); test: radioligand binding assay, adrenergic β1
Method: (§1) Routine radioligand binding assays were performed using reference standards according to established methodology. IC50 values were determined by a non-linear least square regression analysis.

Dopamine D3 = Dopamine D3 (Homo sapiens, UniProt P35462); test: radioligand binding assay, Dopamine D3
Method: as §1

Serotonin 5-HT2 = test: radioligand binding assay, Serotonin 5-HT2
muscarinic M3 = muscarinic M3 (Homo sapiens, UniProt P20309); test: radioligand binding assay, muscarinic M3
Method: as §1

adrenergic β2 = adrenergic β2 (Homo sapiens, UniProt P07550); test: radioligand binding assay, adrenergic β2
Method: as §1

dopamine D4.4 = dopamine D4.4 (Homo sapiens, UniProt P21917); test: radioligand binding assay, dopamine D4.4
Method: as §1

Serotonin 5-HT7 = Serotonin 5-HT7 (Homo sapiens, UniProt P34969); test: radioligand binding assay, Serotonin 5-HT7
Method: as §1

serotonin 5-HT4 = serotonin 5-HT4 (Homo sapiens, UniProt Q13639); test: radioligand binding assay, serotonin 5-HT4
[1] = target: vasoactive intestinal peptide (VIP1) (Homo sapiens, UniProt P32241); test: radioligand binding assay, VIP1
Serotonin 5-HT6 = Serotonin 5-HT6 (Homo sapiens, UniProt P50406); test: radioligand binding assay, Serotonin 5-HT6
neuropeptide Y NPY1 = neuropeptide Y NPY1 (Homo sapiens, UniProt P25929); test: radioligand binding assay, neuropeptide Y NPY1
Method: as §1

adrenergic β3 = adrenergic β3 (Homo sapiens, UniProt P13945); test: radioligand binding assay, adrenergic β3
Method: as §1

tachykinin NK1 = tachykinin NK1 (Homo sapiens, UniProt P25103); test: radioligand binding assay, tachykinin NK1
muscarinic M5 = muscarinic M5 (Homo sapiens, UniProt P08912); test: radioligand binding assay, muscarinic M5
nitric oxide synthetase = test: activity of nitric oxide synthetase; type: biochemical
[2] = target: calcitonin gene related peptide (CGRP) (Homo sapiens, UniProt O60894+Q16602); test: radioligand binding assay, CGRP
Adrenergic α2A = Adrenergic α2A (Homo sapiens, UniProt P08913); test: radioligand binding assay, Adrenergic α2A
Method: as §1

nicotinic = test: radioligand binding assay, nicotinic
Serotonin 5-HT1B = Serotonin 5-HT1B (Homo sapiens, UniProt P28222); test: radioligand binding assay, Serotonin 5-HT1B
Opiate μ = Opiate μ (Homo sapiens, UniProt P35372); test: radioligand binding assay, Opiate μ
Method: as §1

muscarinic M2 = muscarinic M2 (Homo sapiens, UniProt P08172); test: radioligand binding assay, muscarinic M2
Method: as §1

dopamine D4.7 = test: radioligand binding assay, dopamine D4.7
Method: as §1

Serotonin 5-HT2A = Serotonin 5-HT2A (Homo sapiens, UniProt P28223); test: radioligand binding assay, Serotonin 5-HT2A
Method: as §1

Adrenergic α1A = Adrenergic α1A (Homo sapiens, UniProt P35348); test: radioligand binding assay, Adrenergic α1A
Method: as §1

muscarinic M1 = muscarinic M1 (Homo sapiens, UniProt P11229); test: radioligand binding assay, muscarinic M1
Method: as §1

dopamine D4.2 = test: radioligand binding assay, dopamine D4.2
Method: as §1

neuropeptide Y NPY2 = neuropeptide Y NPY2 (Homo sapiens, UniProt P49146); test: radioligand binding assay, neuropeptide Y NPY2
Method: as §1

tachykinin NK2 = tachykinin NK2 (Homo sapiens, UniProt P21452); test: radioligand binding assay, tachykinin NK2
tachykinin NK3 = tachykinin NK3 (Homo sapiens, UniProt P29371); test: radioligand binding assay, tachykinin NK3
Adrenergic α2B = Adrenergic α2B (Homo sapiens, UniProt P18089); test: radioligand binding assay, Adrenergic α2B
Method: as §1

muscarinic M4 = muscarinic M4 (Homo sapiens, UniProt P08173); test: radioligand binding assay, muscarinic M4
[3] = test system: gamma aminobutyric acid GABAA; test: radioligand binding assay, GABAA
[4] = target: gamma aminobutyric acid GABAB (Homo sapiens, UniProt Q9UBS5); test: radioligand binding assay, GABAB
Serotonin 5-HT1A = Serotonin 5-HT1A (Homo sapiens, UniProt P08908); test: radioligand binding assay, Serotonin 5-HT1A
Method: as §1

Dopamine D2S = Dopamine D2S (Homo sapiens, UniProt P14416); test: radioligand binding assay, Dopamine D2S
Method: as §1

Adrenergic α1B = Adrenergic α1B (Homo sapiens, UniProt P35368); test: radioligand binding assay, Adrenergic α1B
opiate κ = opiate κ (Homo sapiens, UniProt P41145); test: radioligand binding assay, opiate κ
Method: as §1

opiate δ = opiate δ (Homo sapiens, UniProt P41143); test: radioligand binding assay, opiate δ
Method: as §1

Serotonin 5-HT1D = Serotonin 5-HT1D (Homo sapiens, UniProt P28221); test: radioligand binding assay, Serotonin 5-HT1D
Method: as §1

Adrenergic α2C = Adrenergic α2C (Homo sapiens, UniProt P18825); test: biochemical
Method: as §1

serotonin 5-HT4, sequence (Q13639 whole entry): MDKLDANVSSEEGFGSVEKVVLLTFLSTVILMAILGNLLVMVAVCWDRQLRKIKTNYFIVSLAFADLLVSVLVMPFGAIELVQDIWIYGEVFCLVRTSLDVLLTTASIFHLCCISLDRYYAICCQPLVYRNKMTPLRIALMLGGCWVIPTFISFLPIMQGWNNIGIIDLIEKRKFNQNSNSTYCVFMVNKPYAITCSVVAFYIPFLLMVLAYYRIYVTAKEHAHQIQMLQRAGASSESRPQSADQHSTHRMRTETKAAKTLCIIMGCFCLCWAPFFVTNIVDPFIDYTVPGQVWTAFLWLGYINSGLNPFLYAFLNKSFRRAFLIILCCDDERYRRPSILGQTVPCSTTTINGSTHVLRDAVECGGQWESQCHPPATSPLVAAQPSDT
muscarinic M5, sequence (P08912 whole entry): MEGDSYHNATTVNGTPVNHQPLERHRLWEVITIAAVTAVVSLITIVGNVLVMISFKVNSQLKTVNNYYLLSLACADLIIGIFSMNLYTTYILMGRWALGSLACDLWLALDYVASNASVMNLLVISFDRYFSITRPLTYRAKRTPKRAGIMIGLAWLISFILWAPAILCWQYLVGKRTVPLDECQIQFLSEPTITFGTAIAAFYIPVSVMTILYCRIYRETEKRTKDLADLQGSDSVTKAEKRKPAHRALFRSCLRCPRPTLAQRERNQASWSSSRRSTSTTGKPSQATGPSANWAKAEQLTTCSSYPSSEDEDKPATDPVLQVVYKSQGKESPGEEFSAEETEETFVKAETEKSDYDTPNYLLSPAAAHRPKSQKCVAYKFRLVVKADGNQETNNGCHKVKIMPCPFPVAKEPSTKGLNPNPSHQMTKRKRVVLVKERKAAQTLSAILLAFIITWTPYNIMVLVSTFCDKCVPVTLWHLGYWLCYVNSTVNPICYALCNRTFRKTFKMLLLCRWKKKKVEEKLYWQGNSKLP
Opiate μ, sequence (P35372 whole entry): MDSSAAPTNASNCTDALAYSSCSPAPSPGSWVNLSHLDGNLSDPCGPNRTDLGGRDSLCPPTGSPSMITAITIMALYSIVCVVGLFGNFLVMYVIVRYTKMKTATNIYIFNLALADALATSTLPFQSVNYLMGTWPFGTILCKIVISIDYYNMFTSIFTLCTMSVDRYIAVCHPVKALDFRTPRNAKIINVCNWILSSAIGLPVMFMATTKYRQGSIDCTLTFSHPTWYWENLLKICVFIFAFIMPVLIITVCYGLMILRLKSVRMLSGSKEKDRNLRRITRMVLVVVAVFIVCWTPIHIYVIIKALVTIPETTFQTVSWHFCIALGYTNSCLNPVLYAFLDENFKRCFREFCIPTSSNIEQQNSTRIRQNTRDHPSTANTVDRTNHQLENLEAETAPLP
Adrenergic α2A, sequence (P08913 whole entry): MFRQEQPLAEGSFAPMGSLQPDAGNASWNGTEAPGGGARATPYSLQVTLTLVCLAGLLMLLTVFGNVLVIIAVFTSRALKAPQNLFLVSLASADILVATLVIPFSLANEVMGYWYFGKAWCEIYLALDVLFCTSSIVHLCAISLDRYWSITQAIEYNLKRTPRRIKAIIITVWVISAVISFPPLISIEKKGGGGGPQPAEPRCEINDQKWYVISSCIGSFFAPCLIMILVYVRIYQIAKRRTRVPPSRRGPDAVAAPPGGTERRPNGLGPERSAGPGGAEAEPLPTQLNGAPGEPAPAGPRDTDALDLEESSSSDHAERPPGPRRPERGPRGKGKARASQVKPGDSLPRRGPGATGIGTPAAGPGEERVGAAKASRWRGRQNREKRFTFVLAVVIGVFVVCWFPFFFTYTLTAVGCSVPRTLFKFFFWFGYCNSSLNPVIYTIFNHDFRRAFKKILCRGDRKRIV
muscarinic M2, sequence (P08172 whole entry): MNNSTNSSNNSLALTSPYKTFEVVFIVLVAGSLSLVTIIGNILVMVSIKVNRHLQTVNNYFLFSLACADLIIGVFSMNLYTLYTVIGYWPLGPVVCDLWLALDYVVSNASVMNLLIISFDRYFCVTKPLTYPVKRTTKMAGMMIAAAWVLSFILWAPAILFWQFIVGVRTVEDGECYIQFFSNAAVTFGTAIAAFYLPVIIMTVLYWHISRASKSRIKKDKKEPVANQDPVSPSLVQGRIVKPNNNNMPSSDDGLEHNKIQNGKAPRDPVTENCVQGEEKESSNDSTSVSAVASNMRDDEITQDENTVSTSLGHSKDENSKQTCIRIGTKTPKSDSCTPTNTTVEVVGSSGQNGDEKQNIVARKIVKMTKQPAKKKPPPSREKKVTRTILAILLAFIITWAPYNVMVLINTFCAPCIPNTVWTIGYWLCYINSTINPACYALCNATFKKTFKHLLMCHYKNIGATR
vasoactive intestinal peptide (VIP1), sequence (P32241 31-457): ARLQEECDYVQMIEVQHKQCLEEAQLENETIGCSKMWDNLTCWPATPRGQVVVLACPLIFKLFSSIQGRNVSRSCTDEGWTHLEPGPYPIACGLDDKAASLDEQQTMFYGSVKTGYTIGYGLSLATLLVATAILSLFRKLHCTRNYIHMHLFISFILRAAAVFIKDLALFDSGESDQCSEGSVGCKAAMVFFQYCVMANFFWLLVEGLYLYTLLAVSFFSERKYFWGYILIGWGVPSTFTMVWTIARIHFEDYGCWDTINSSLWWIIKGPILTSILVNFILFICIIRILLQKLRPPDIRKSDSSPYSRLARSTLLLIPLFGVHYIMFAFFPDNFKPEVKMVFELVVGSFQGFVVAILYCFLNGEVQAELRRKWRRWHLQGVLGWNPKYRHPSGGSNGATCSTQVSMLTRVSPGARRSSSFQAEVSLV
gamma aminobutyric acid GABAB, sequence (Q9UBS5 15-961 limits assumed): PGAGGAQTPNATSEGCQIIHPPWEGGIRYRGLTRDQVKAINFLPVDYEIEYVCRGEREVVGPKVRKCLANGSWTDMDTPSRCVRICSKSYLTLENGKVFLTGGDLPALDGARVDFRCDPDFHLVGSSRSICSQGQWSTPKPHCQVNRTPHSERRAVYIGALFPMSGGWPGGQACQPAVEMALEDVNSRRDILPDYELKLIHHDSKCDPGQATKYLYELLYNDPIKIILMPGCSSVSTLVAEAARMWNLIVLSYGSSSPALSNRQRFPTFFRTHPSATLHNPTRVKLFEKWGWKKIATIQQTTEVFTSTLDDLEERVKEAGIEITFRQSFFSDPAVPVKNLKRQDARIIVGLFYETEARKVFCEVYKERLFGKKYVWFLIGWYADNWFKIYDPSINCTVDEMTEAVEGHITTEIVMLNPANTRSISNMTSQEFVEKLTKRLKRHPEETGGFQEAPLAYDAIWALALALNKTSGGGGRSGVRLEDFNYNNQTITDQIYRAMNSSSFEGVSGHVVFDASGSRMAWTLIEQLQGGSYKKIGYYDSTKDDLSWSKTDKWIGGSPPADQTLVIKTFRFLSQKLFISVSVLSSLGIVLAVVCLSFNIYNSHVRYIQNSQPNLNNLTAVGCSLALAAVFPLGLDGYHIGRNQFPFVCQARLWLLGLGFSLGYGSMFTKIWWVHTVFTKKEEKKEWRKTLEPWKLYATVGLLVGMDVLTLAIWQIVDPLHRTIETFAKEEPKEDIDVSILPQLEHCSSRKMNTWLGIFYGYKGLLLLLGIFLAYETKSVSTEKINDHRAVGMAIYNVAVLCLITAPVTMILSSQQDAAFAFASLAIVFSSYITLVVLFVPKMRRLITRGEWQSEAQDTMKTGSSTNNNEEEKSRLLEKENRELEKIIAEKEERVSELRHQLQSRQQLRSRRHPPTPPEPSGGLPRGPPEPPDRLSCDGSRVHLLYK
gamma aminobutyric acid GABAB, sequence (O75899 42-941 partner): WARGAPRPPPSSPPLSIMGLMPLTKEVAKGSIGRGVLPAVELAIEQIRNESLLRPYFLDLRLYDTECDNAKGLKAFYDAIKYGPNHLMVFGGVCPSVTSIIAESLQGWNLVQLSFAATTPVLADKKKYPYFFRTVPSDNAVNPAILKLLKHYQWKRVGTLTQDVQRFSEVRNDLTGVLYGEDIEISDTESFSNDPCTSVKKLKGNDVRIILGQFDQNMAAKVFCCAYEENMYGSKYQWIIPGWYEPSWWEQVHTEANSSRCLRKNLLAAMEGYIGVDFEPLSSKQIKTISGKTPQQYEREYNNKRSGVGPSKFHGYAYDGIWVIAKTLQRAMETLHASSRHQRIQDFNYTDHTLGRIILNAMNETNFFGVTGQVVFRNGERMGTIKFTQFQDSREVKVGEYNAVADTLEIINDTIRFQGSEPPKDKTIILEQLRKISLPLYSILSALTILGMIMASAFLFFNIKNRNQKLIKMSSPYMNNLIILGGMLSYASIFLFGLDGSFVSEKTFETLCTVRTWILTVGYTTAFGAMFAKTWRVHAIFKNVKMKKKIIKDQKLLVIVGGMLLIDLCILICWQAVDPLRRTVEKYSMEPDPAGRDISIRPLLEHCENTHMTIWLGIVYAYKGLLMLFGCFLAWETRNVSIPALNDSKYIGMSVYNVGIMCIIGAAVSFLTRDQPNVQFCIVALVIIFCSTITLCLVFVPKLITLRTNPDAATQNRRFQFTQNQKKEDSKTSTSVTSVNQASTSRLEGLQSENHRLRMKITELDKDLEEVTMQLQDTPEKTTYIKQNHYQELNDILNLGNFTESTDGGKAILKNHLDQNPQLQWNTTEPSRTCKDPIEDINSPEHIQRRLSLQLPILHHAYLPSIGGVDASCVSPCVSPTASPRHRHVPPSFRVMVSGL
tachykinin NK2, sequence (P21452 whole entry): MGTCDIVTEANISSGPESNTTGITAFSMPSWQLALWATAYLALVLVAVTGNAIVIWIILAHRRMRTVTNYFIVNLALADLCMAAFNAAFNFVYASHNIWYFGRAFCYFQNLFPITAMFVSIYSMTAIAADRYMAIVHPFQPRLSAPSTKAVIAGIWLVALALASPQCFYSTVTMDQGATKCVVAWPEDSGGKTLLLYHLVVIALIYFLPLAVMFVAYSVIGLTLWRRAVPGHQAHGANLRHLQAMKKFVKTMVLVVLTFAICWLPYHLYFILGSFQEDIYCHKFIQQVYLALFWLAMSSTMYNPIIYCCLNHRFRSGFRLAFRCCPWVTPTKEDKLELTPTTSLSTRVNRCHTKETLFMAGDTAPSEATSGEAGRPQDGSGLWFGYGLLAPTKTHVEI

| SMILES | binding activity (adrenergic β1) | binding activity (muscarinic M3) | binding activity (adrenergic β2) | binding activity (dopamine D4.4) | binding activity (serotonin 5-HT4) | binding activity [1] | Ki (Serotonin 5-HT6) [nM] | binding activity (neuropeptide Y NPY1) | binding activity (adrenergic β3) | binding activity (tachykinin NK1) | binding activity (muscarinic M5) | effect on the activity of nitric oxide synthetase (nitric oxide synthetase) | binding activity [2] | binding activity (nicotinic) | Ki (Serotonin 5-HT1B) [nM] | binding activity (muscarinic M2) | binding activity (dopamine D4.7) | Ki (Adrenergic α1A) [nM] | binding activity (dopamine D4.2) | binding activity (neuropeptide Y NPY2) | further results |
| --- | --- | --- | --- | --- | --- | --- | --- | --- | --- | --- | --- | --- | --- | --- | --- | --- | --- | --- | --- | --- | --- |
| Oc1ccc2c(c1O)-c1cccc3c1C(C2)NCC3 (stereo not shown) [Norapomorphine, norapomorphine] | did not bind significantly | did not bind significantly | did not bind significantly | did not bind significantly | did not bind significantly | did not bind significantly | 1670 | did not bind significantly | did not bind significantly | did not bind significantly | did not bind significantly | neither apomorphine nor its metabolite norapomorphine demonstrated any significant effect | did not bind significantly | did not bind significantly | 3560 | did not bind significantly | did not bind significantly | 4170 | did not bind significantly | did not bind significantly | Ki (Dopamine D3): 117 nM; Ki (Serotonin 5-HT2): N/S (N/S = no significant activity (≧50% at 10 μM)); Ki (Serotonin 5-HT7; Serotonin 5-HT7, read-out: Ki): 1380 nM; Ki (Adrenergic α2A; Adrenergic α2A, read-out: Ki): 1430 nM; Ki (Opiate μ): 2090 nM; Ki (Serotonin 5-HT2A; Serotonin 5-HT2A, read-out: Ki): 1120 nM; binding activity (muscarinic M1): did not bind significantly; binding activity (tachykinin NK2): did not bind significantly; binding activity (tachykinin NK3): did not bind significantly; Ki (Adrenergic α2B): 213 nM; binding activity (muscarinic M4): did not bind significantly; binding activity [3]: did not bind significantly; binding activity [4]: did not bind significantly; Ki (Serotonin 5-HT1A): 439 nM; Ki (Dopamine D2S): 1100 nM |
| CN1CCc2cccc3c2[C@H]1Cc1ccc(O)c(O)c1-3 [Apomorphine, (R)-5,6,6a,7-tetrahydro-6-methyl-4H-dibenzo-[de,g]quinoline-10,11-diol] | No significant binding activity | No significant binding activity | No significant binding activity | No significant binding activity | No significant binding activity | No significant binding activity | 206 | No significant binding activity | No significant binding activity | No significant binding activity | No significant binding activity | neither apomorphine nor its metabolite norapomorphine demonstrated any significant effect | No significant binding activity | No significant binding activity | 205 | No significant binding activity | No significant binding activity | 343 | No significant binding activity | No significant binding activity | Ki (Adrenergic α1B): 882 nM; Ki (Serotonin 5-HT2; read-out: Ki): 111 nM; binding activity (opiate κ): No significant binding activity; binding activity (opiate δ): No significant binding activity; Ki (Serotonin 5-HT1D): 288 nM; Ki (Serotonin 5-HT7): 65 nM; Ki (Adrenergic α2C): 19 nM; Ki (Adrenergic α2A): 71 nM; binding activity (Opiate μ): No significant binding activity; Ki (Serotonin 5-HT2A): 27 nM; binding activity (tachykinin NK2): No significant binding activity; binding activity (tachykinin NK3): No significant binding activity; binding activity (muscarinic M4): No significant binding activity; binding activity [3]: No significant binding activity; binding activity [4]: No significant binding activity |
